Where a name gives a salt, the structure may show the parent alone.
Test: Plasma pharmacokinetics of ropivacaine in sciatic nerve blockade model
Format: in vivo, Sprague-Dawley rats
Excerpt: Male Sprague-Dawley rats, approximately 400-500 g in weight, were anesthetized with 3-5% isoflurane and maintained as required. The left hind leg was shaved, cleaned twice with iodine and 70% ethanol, and a sterile drape placed over the animal to create a sterile field. An incision was made in the skin and the sciatic nerve exposed using a blunt dissection. The treatment was applied, the muscle and incision closed with sutures, and animals allowed to recover under a heat lamp. Controls were injected with vehicle only (i.e. HAMC) or ropivacaine in solution.
Blood samples were taken from the tail veins and quantified using mass-spectrometry. All extractions and mass-spectrometry was carried out by the Analytical Facility for Bioactive Molecules (The Hospital for Sick Children, Toronto, Canada).
To gain insight into the pharmacokinetics of ropivacaine released from HAMC, the sciatic nerve block procedure was performed as described. Animals were treated with ropivacaine-loaded 1.4:3 HAMC at doses of 30, 60, 90 or 120 mg/kg of particulate ropivacaine (<100 μm). Control animals received HAMC alone or ropivacaine in solution at 24 mg/kg. Each animal received approximately 400 μL of treatment. For the HAMC groups, blood was sampled by tail vein puncture at 2 h, 4 h, 6 h, 12 h, 20 h, 30 h, 48 h and 72 h. […]
All statistical analyses were performed using GraphPad Prism (GraphPad Software 6, San Diego, CA, USA). Differences among 4 groups were assessed by one-way ANOVA followed by either Dunnett's or Tukey's multiple comparisons test to identify statistical significance. […] The area under the curve (AUC) was calculated for each HAMC-ropivacaine pharmacokinetic profile, and the subsequent AUC vs HAMC-ropivacaine relationship was fit to a linear regression.
A pharmacokinetics study was performed to evaluate the systemic plasma distribution of ropivacaine when delivered either from HAMC or as bolus liquid solution. […] Blood was sampled by tail vein puncture over time, and the amount of ropivacaine was quantified by LC-MS/MS.

[1] = Sprague-Dawley, rat, plasma, 24 mg/kg at left sciatic nerve, male rats

plasma levels (24 mg/kg, by 24 h): negligible plasma levels
Cmax [1]: 1000 ng/mL
Tmax [1]: 1 h
SMILES: CCCN1CCCC[C@H]1C(=O)Nc1c(C)cccc1C [ropivacaine solution, ropivacaine·HCl]

From patent US12419878B2, “Sustained release local anesthetic hydrogel composition” (THE GOVERNING COUNCIL OF THE UNIVERSITY OF TORONTO, priority 2019, dated 2025)
